In the NIST ThermoML archive (doi:10.1021/je050416y):

Test: xn = mol fraction of the nth substance listed
Settings: 101 kPa, Liquid; for mass density: Vibrating tube method

CC(C)CCO [3-methylbutan-1-ol] + CCO
Settings	kinematic viscosity [m2/s]	mass density [kg/m3]
293.15 K, x1 = 0.0268	–	790.5
293.15 K, x1 = 0.0549	–	791.3
293.15 K, x1 = 0.0845	–	792.1
293.15 K, x1 = 0.0915	1.55e-06	–
293.15 K, x1 = 0.1156	–	792.9
293.15 K, x1 = 0.1484	–	793.8
293.15 K, x1 = 0.1753	1.61e-06	–
293.15 K, x1 = 0.183	–	794.7
293.15 K, x1 = 0.2524	1.68e-06	–
293.15 K, x1 = 0.2584	–	796.6
293.15 K, x1 = 0.3235	1.75e-06	–
293.15 K, x1 = 0.3433	–	798.5
293.15 K, x1 = 0.3894	1.83e-06	–
293.15 K, x1 = 0.4395	–	800.4
293.15 K, x1 = 0.4505	1.93e-06	–
293.15 K, x1 = 0.5495	–	802.4
293.15 K, x1 = 0.5605	2.19e-06	–
293.15 K, x1 = 0.6567	2.51e-06	–
293.15 K, x1 = 0.6765	–	804.3
293.15 K, x1 = 0.7416	2.89e-06	–
293.15 K, x1 = 0.817	3.31e-06	–
293.15 K, x1 = 0.8247	–	806.3
293.15 K, x1 = 0.8844	3.8e-06	–
293.15 K, x1 = 0.9451	4.35e-06	–
293.15 K, x1 = 1	5e-06	808.3
298.15 K, x1 = 0.0268	–	786.2
298.15 K, x1 = 0.0549	–	787
298.15 K, x1 = 0.0845	–	787.9
298.15 K, x1 = 0.0915	1.42e-06	–
298.15 K, x1 = 0.1156	–	788.8
298.15 K, x1 = 0.1484	–	789.7
298.15 K, x1 = 0.1753	1.48e-06	–
298.15 K, x1 = 0.183	–	790.6
298.15 K, x1 = 0.2524	1.54e-06	–
298.15 K, x1 = 0.2584	–	792.5
298.15 K, x1 = 0.3235	1.61e-06	–
298.15 K, x1 = 0.3433	–	794.5
298.15 K, x1 = 0.3894	1.69e-06	–
298.15 K, x1 = 0.4395	–	796.5
298.15 K, x1 = 0.4505	1.78e-06	–
298.15 K, x1 = 0.5495	–	798.5
298.15 K, x1 = 0.5605	2.01e-06	–
298.15 K, x1 = 0.6567	2.28e-06	–
298.15 K, x1 = 0.6765	–	800.5
298.15 K, x1 = 0.7416	2.6e-06	–
298.15 K, x1 = 0.817	2.96e-06	–
298.15 K, x1 = 0.8247	–	802.6
298.15 K, x1 = 0.8844	3.37e-06	–
298.15 K, x1 = 0.9451	3.84e-06	–
298.15 K, x1 = 1	4.35e-06	804.6
303.15 K, x1 = 0.0268	–	781.8
303.15 K, x1 = 0.0549	–	782.7
303.15 K, x1 = 0.0845	–	783.7
303.15 K, x1 = 0.0915	1.27e-06	–
303.15 K, x1 = 0.1156	–	784.6
303.15 K, x1 = 0.1484	–	785.5
303.15 K, x1 = 0.1753	1.32e-06	–
303.15 K, x1 = 0.183	–	786.5
303.15 K, x1 = 0.2524	1.38e-06	–
303.15 K, x1 = 0.2584	–	788.5
303.15 K, x1 = 0.3235	1.45e-06	–
303.15 K, x1 = 0.3433	–	790.5
303.15 K, x1 = 0.3894	1.52e-06	–
303.15 K, x1 = 0.4395	–	792.5
303.15 K, x1 = 0.4505	1.61e-06	–
303.15 K, x1 = 0.5495	–	794.6
303.15 K, x1 = 0.5605	1.81e-06	–
303.15 K, x1 = 0.6567	2.05e-06	–
303.15 K, x1 = 0.6765	–	796.7
303.15 K, x1 = 0.7416	2.33e-06	–
303.15 K, x1 = 0.817	2.64e-06	–
303.15 K, x1 = 0.8247	–	798.7
303.15 K, x1 = 0.8844	2.99e-06	–
303.15 K, x1 = 0.9451	3.38e-06	–
303.15 K, x1 = 1	3.81e-06	800.8
308.15 K, x1 = 0.0268	–	777.5
308.15 K, x1 = 0.0549	–	778.4
308.15 K, x1 = 0.0845	–	779.4
308.15 K, x1 = 0.0915	1.17e-06	–
308.15 K, x1 = 0.1156	–	780.4
308.15 K, x1 = 0.1484	–	781.4
308.15 K, x1 = 0.1753	1.22e-06	–
308.15 K, x1 = 0.183	–	782.4
308.15 K, x1 = 0.2524	1.27e-06	–
308.15 K, x1 = 0.2584	–	784.4
308.15 K, x1 = 0.3235	1.33e-06	–
308.15 K, x1 = 0.3433	–	786.5
308.15 K, x1 = 0.3894	1.4e-06	–
308.15 K, x1 = 0.4395	–	788.6
308.15 K, x1 = 0.4505	1.47e-06	–
308.15 K, x1 = 0.5495	–	790.7
308.15 K, x1 = 0.5605	1.65e-06	–
308.15 K, x1 = 0.6567	1.86e-06	–
308.15 K, x1 = 0.6765	–	792.9
308.15 K, x1 = 0.7416	2.1e-06	–
308.15 K, x1 = 0.817	2.37e-06	–
308.15 K, x1 = 0.8247	–	795
308.15 K, x1 = 0.8844	2.66e-06	–
308.15 K, x1 = 0.9451	2.98e-06	–
308.15 K, x1 = 1	3.33e-06	797.1
313.15 K, x1 = 0.0268	–	773.2
313.15 K, x1 = 0.0549	–	774.2
313.15 K, x1 = 0.0845	–	775.2
313.15 K, x1 = 0.0915	1.07e-06	–
313.15 K, x1 = 0.1156	–	776.2
313.15 K, x1 = 0.1484	–	777.2
313.15 K, x1 = 0.1753	1.12e-06	–
313.15 K, x1 = 0.183	–	778.2
313.15 K, x1 = 0.2524	1.17e-06	–
313.15 K, x1 = 0.2584	–	780.3
313.15 K, x1 = 0.3235	1.22e-06	–
313.15 K, x1 = 0.3433	–	782.4
313.15 K, x1 = 0.3894	1.28e-06	–
313.15 K, x1 = 0.4395	–	784.6
313.15 K, x1 = 0.4505	1.35e-06	–
313.15 K, x1 = 0.5495	–	786.7
313.15 K, x1 = 0.5605	1.51e-06	–
313.15 K, x1 = 0.6567	1.69e-06	–
313.15 K, x1 = 0.6765	–	788.9
313.15 K, x1 = 0.7416	1.9e-06	–
313.15 K, x1 = 0.817	2.13e-06	–
313.15 K, x1 = 0.8247	–	791
313.15 K, x1 = 0.8844	2.38e-06	–
313.15 K, x1 = 0.9451	2.66e-06	–
313.15 K, x1 = 1	2.94e-06	793.2
318.15 K, x1 = 0.0268	–	769
318.15 K, x1 = 0.0549	–	770
318.15 K, x1 = 0.0845	–	771
318.15 K, x1 = 0.0915	9.8e-07	–
318.15 K, x1 = 0.1156	–	772
318.15 K, x1 = 0.1484	–	773.1
318.15 K, x1 = 0.1753	1.03e-06	–
318.15 K, x1 = 0.183	–	774.1
318.15 K, x1 = 0.2524	1.07e-06	–
318.15 K, x1 = 0.2584	–	776.3
318.15 K, x1 = 0.3235	1.12e-06	–
318.15 K, x1 = 0.3433	–	778.4
318.15 K, x1 = 0.3894	1.17e-06	–
318.15 K, x1 = 0.4395	–	780.6
318.15 K, x1 = 0.4505	1.23e-06	–
318.15 K, x1 = 0.5495	–	782.8
318.15 K, x1 = 0.5605	1.37e-06	–
318.15 K, x1 = 0.6567	1.54e-06	–
318.15 K, x1 = 0.6765	–	785.1
318.15 K, x1 = 0.7416	1.72e-06	–
318.15 K, x1 = 0.817	1.92e-06	–
318.15 K, x1 = 0.8247	–	787.3
318.15 K, x1 = 0.8844	2.13e-06	–
318.15 K, x1 = 0.9451	2.36e-06	–
318.15 K, x1 = 1	2.59e-06	789.5
323.15 K, x1 = 0.0268	–	764.6
323.15 K, x1 = 0.0549	–	765.7
323.15 K, x1 = 0.0845	–	766.7
323.15 K, x1 = 0.0915	8.72e-07	–
323.15 K, x1 = 0.1156	–	767.8
323.15 K, x1 = 0.1484	–	768.9
323.15 K, x1 = 0.1753	9.13e-07	–
323.15 K, x1 = 0.183	–	769.9
323.15 K, x1 = 0.2524	9.53e-07	–
323.15 K, x1 = 0.2584	–	772.1
323.15 K, x1 = 0.3235	9.96e-07	–
323.15 K, x1 = 0.3433	–	774.3
323.15 K, x1 = 0.3894	1.05e-06	–
323.15 K, x1 = 0.4395	–	776.6
323.15 K, x1 = 0.4505	1.1e-06	–
323.15 K, x1 = 0.5495	–	778.9
323.15 K, x1 = 0.5605	1.23e-06	–
323.15 K, x1 = 0.6567	1.39e-06	–
323.15 K, x1 = 0.6765	–	781.2
323.15 K, x1 = 0.7416	1.55e-06	–
323.15 K, x1 = 0.817	1.72e-06	–
323.15 K, x1 = 0.8247	–	783.4
323.15 K, x1 = 0.8844	1.9e-06	–
323.15 K, x1 = 0.9451	2.09e-06	–
323.15 K, x1 = 1	2.29e-06	785.7
